Data from the NIST ThermoML archive (doi:10.1021/je900050z).
Where “and” joins values, the source holds several entries; their conditions need not be identical. Equal values may be shown once.

Conditions: Liquid

CCCC(C)O (stereo unspecified) [pentan-2-ol]
Conditions | vapor or sublimation pressure
323.84 K | 4.16 kPa
324.19 K | 4.41 kPa
324.55 K | 4.39 kPa
325.09 K | 4.67 kPa
326 K | 4.93 kPa
326.22 K | 4.89 kPa
326.99 K | 5.27 kPa
327.15 K | 5.2 kPa
327.64 K | 5.43 kPa
328.19 K | 5.71 kPa
328.23 K | 5.64 kPa
329.05 K | 5.91 kPa
329.11 K | 5.95 kPa and 6.04 kPa
329.66 K | 6.16 kPa
329.9 K | 6.33 kPa
330.86 K | 6.71 kPa
331.78 K | 7.08 kPa
332.29 K | 7.17 kPa
332.55 K | 7.4 kPa
332.61 K | 7.31 kPa
332.92 K | 7.43 kPa
333.15 K | 7.52 kPa
333.37 K | 7.76 kPa
333.88 K | 7.99 kPa
334.61 K | 8.33 kPa
335.52 K | 8.77 kPa
336.34 K | 9.17 kPa
336.37 K | 9.19 kPa
337.2 K | 9.59 kPa
337.85 K | 9.95 kPa
338.74 K | 10.43 kPa
339.44 K | 10.81 kPa
340.1 K | 11.21 kPa
340.82 K | 11.67 kPa
341.54 K | 12.11 kPa
342.2 K | 12.52 kPa
342.83 K | 12.77 kPa
342.88 K | 12.97 kPa
343.15 K | 13 kPa
343.26 K | 13.07 kPa
343.3 K | 13.11 kPa
343.38 K | 13.16 kPa
344.38 K | 13.99 kPa
345.27 K | 14.65 kPa
346.15 K | 15.31 kPa
347.02 K | 15.96 kPa
347.8 K | 16.63 kPa
348.68 K | 17.32 kPa
349.38 K | 17.95 kPa
350.16 K | 18.63 kPa
350.93 K | 19.31 kPa
351.64 K | 19.96 kPa
351.88 K | 20 kPa
352.33 K | 20.43 kPa
352.6 K | 20.65 kPa
352.7 K | 20.72 kPa
352.76 K | 20.83 kPa
352.89 K | 20.96 kPa
353.05 K | 21.12 kPa
353.1 K | 21.19 kPa
353.15 K | 21.2 kPa
353.35 K | 21.4 kPa
354.12 K | 22.16 kPa
354.72 K | 22.83 kPa
355.42 K | 23.55 kPa
355.92 K | 24.12 kPa
356.39 K | 24.44 kPa
356.55 K | 24.84 kPa
357.15 K | 25.47 kPa
357.76 K | 26.2 kPa
357.79 K | 26 kPa
358.23 K | 26.75 kPa
358.83 K | 27.45 kPa
358.88 K | 27.32 kPa
359.01 K | 27.45 kPa
359.53 K | 28.19 kPa
359.91 K | 28.67 kPa
360.35 K | 29.25 kPa
360.5 K | 29.41 kPa
361.12 K | 30.29 kPa
361.45 K | 30.68 kPa
362.1 K | 31.59 kPa
362.5 K | 32.13 kPa
362.93 K | 32.73 kPa
363.38 K | 33.35 kPa
363.85 K | 34.05 kPa
364.28 K | 34.64 kPa
364.84 K | 35.47 kPa
365.13 K | 35.95 kPa
365.62 K | 36.71 kPa
366.01 K | 37.32 kPa
366.4 K | 37.95 kPa
366.86 K | 38.64 kPa
367.24 K | 39.31 kPa
367.65 K | 39.97 kPa
368.06 K | 40.64 kPa
368.44 K | 41.27 kPa
368.85 K | 41.96 kPa
369.31 K | 42.73 kPa
369.58 K | 43.23 kPa
370.05 K | 44.05 kPa
370.46 K | 44.75 kPa
370.74 K | 45.4 kPa
371.07 K | 45.91 kPa
371.47 K | 46.64 kPa
371.82 K | 47.45 kPa
372.15 K | 47.93 kPa
372.5 K | 48.64 kPa
372.91 K | 49.31 kPa
373.16 K | 49.87 kPa
373.57 K | 50.71 kPa
373.88 K | 51.25 kPa
374.25 K | 52.03 kPa
374.47 K | 52.55 kPa
374.85 K | 53.37 kPa
375.14 K | 53.95 kPa
375.44 K | 54.67 kPa
375.83 K | 55.37 kPa
376.13 K | 56.01 kPa
376.47 K | 56.71 kPa
376.74 K | 57.36 kPa
377.07 K | 58 kPa
377.32 K | 58.64 kPa
377.65 K | 59.32 kPa
377.91 K | 59.97 kPa
378.22 K | 60.67 kPa
378.56 K | 61.4 kPa
378.81 K | 61.97 kPa
379.04 K | 62.61 kPa
379.39 K | 63.39 kPa
379.6 K | 63.91 kPa
379.89 K | 64.6 kPa
380.13 K | 65.2 kPa
380.47 K | 65.99 kPa
380.7 K | 66.63 kPa
381 K | 67.31 kPa
381.26 K | 68.01 kPa
381.53 K | 68.67 kPa
381.76 K | 69.31 kPa
382.08 K | 70.21 kPa
382.28 K | 70.63 kPa
382.55 K | 71.31 kPa
382.78 K | 71.95 kPa
383.05 K | 72.65 kPa
383.29 K | 73.35 kPa
383.53 K | 73.93 kPa
383.76 K | 74.63 kPa
384.09 K | 75.48 kPa
384.26 K | 75.99 kPa
384.5 K | 76.63 kPa
384.74 K | 77.35 kPa
384.95 K | 77.93 kPa
385.42 K | 79.27 kPa
385.65 K | 80 kPa
385.87 K | 80.56 kPa
386.24 K | 81.79 kPa
386.32 K | 81.88 kPa
386.54 K | 82.68 kPa
386.76 K | 83.23 kPa
386.96 K | 84.05 kPa
387.37 K | 85.27 kPa
387.8 K | 86.61 kPa
388.23 K | 88 kPa
388.66 K | 89.39 kPa
389.07 K | 90.69 kPa
389.51 K | 92.16 kPa
389.9 K | 93.44 kPa
390.26 K | 94.61 kPa
390.65 K | 95.95 kPa
391.05 K | 97.27 kPa
391.46 K | 98.71 kPa

CCC(C)(C)O [2-methylbutan-2-ol]
Conditions | vapor or sublimation pressure [kPa]
303.29 K | 2.81
303.47 K | 2.85
304.67 K | 3.16
305.75 K | 3.4
305.9 K | 3.43
308.35 K | 4.08
309.12 K | 4.31
309.86 K | 4.55
310.61 K | 4.8
311.64 K | 5.15
312.47 K | 5.43
313.38 K | 5.77
314.17 K | 6.08
315.44 K | 6.59
317.09 K | 7.31
318.64 K | 7.99
319.37 K | 8.36
319.86 K | 8.61
320.32 K | 8.84
321.32 K | 9.36
322.44 K | 9.99
323.15 K | 10.41
323.27 K | 10.49
324.11 K | 11.03
324.91 K | 11.51
325.71 K | 12.03
326.45 K | 12.55
327.18 K | 13.05
327.62 K | 13.36
328.41 K | 13.97
329.33 K | 14.65
330.15 K | 15.31
330.98 K | 15.97
331.8 K | 16.67
332.46 K | 17.29
333.15 K | 17.87
333.26 K | 17.99
333.99 K | 18.65
334.69 K | 19.32
335.45 K | 20.03
336.05 K | 20.67
336.68 K | 21.31
337.31 K | 21.96
337.97 K | 22.63
338.69 K | 23.47
339.15 K | 23.97
339.68 K | 24.67
340.31 K | 25.35
340.83 K | 26
341.39 K | 26.67
341.9 K | 27.33
342.4 K | 27.97
342.92 K | 28.67
343.15 K | 28.95
343.42 K | 29.31
343.94 K | 30.01
344.47 K | 30.67
344.91 K | 31.35
345.39 K | 32.07
345.78 K | 32.67
346.35 K | 33.48
347.18 K | 34.67
347.57 K | 35.32
348.07 K | 36.07
348.49 K | 36.71
348.88 K | 37.36
349.27 K | 38.01
349.64 K | 38.64
350.08 K | 39.32
350.49 K | 39.96
350.83 K | 40.64
351.2 K | 41.31
351.67 K | 42.08
351.95 K | 42.65
352.3 K | 43.35
352.73 K | 44
353.02 K | 44.65
353.15 K | 44.87
353.44 K | 45.35
353.73 K | 45.97
354.1 K | 46.63
354.41 K | 47.28
354.72 K | 47.95
355.11 K | 48.65
355.43 K | 49.31
355.74 K | 49.95
356.09 K | 50.75
356.45 K | 51.36
356.69 K | 52
356.99 K | 52.61
357.35 K | 53.32
357.67 K | 54.03
357.96 K | 54.67
358.25 K | 55.35
358.47 K | 55.95
358.85 K | 56.63
359.15 K | 57.33
359.48 K | 58
359.68 K | 58.59
360.01 K | 59.27
360.21 K | 59.95
360.53 K | 60.59
360.83 K | 61.27
361.11 K | 61.99
361.4 K | 62.61
361.72 K | 63.35
362.01 K | 64.04
362.24 K | 64.67
362.54 K | 65.35
362.84 K | 66
363.07 K | 66.71
363.56 K | 67.92
364.15 K | 69.21
364.62 K | 70.64
365.21 K | 71.99
365.73 K | 73.37
366.16 K | 74.75
366.67 K | 76.05
367.11 K | 77.28
367.53 K | 78.63
368.02 K | 79.97
368.44 K | 81.28
368.83 K | 82.53
369.31 K | 83.93
369.73 K | 85.28
370.15 K | 86.63
370.56 K | 87.97
370.99 K | 89.39
371.39 K | 90.76
371.77 K | 91.99
372.16 K | 93.31
372.56 K | 94.67
372.95 K | 95.99
373.34 K | 97.39
373.73 K | 98.71
